Assay results as given in the NIST ThermoML archive (doi:10.1021/je060107n).

Assay: mn = molality of the nth substance listed, in mol/kg
Conditions: 101 kPa, Liquid; for viscosity: Capillary tube (Ostwald / Ubbelohde) method; for speed of sound: Linear variable-path acoustic interferometer

O=[N+]([O-])[O-].O=[N+]([O-])[O-].[Mg+2] [magnesium nitrate] + O
Conditions | speed of sound, 273.15 K [m/s] | speed of sound, 278.15 K [m/s] | viscosity, 273.15 K [mPa·s] | viscosity, 278.15 K [mPa·s] | viscosity, 283.15 K [mPa·s]
m1 = 0.0145 | 1410.5 | 1434.8 | 1.852 | 1.556 | 1.339
m1 = 0.0528 | 1415.6 | 1438.7 | 1.874 | 1.58 | 1.357
m1 = 0.2491 | 1430.4 | 1451.6 | 1.958 | 1.654 | 1.429
m1 = 0.3405 | 1443 | 1456.8 | – | – | –
m1 = 0.5931 | – | – | 2.122 | 1.805 | 1.564
m1 = 0.6173 | 1469.3 | 1486.9 | – | – | –
m1 = 0.896 | 1498.6 | 1514.8 | – | – | –
m1 = 0.9898 | 1510.3 | 1524.8 | 2.391 | 2.047 | 1.775
m1 = 1.262 | 1538 | 1551.3 | 2.659 | 2.268 | 1.971
m1 = 1.525 | 1566.3 | 1577.1 | – | – | –
m1 = 1.827 | 1600.5 | 1610.1 | 3.232 | 2.765 | 2.4
m1 = 2.131 | 1632 | 1639.7 | 3.587 | 3.062 | 2.663
m1 = 2.493 | 1664.6 | 1670.1 | – | – | –
m1 = 2.584 | – | – | 4.348 | 3.696 | 3.207
m1 = 2.793 | 1693.2 | 1696.9 | – | – | –
m1 = 3.096 | – | – | 5.355 | 4.538 | 3.946
m1 = 3.118 | 1721.2 | 1723.7 | – | – | –
m1 = 3.17 | 1730.6 | 1733 | – | – | –
m1 = 3.329 | – | – | 5.964 | 5.056 | 4.336
m1 = 3.501 | 1752.4 | 1753.7 | – | – | –
m1 = 3.704 | – | – | 6.966 | 5.857 | 5.02
m1 = 3.757 | 1771.9 | 1772.4 | – | – | –
m1 = 4.039 | – | – | 8.21 | 6.897 | 5.864
m1 = 4.051 | 1791.3 | 1791.4 | – | – | –
m1 = 4.285 | 1808.5 | 1807.3 | – | – | –
m1 = 4.403 | 1820.2 | 1815.4 | – | – | –
m1 = 4.728 | – | – | 11.85 | 9.74 | 8.233
